From US12370463B2, “Continuous-flow, well mixed, microfluidic crystallization device for screening polymorphs, morphologies and crystallization kinetics at controlled supersaturation” (THE BOARD OF TRUSTEES OF THE UNIVERSITY OF ILLINOIS, priority 2019, dated 2025)

How the values were obtained:
Type in all cases: physicochemical
[1] = Antisolvent crystallization of o-ABA in the microfluidic mixer, merged and separated inlet designs
From the text: The crystals were formed at room temperature using ethanol as solvent and water as antisolvent. The microfluidic system was configured to have a cyclone-shaped geometry.
The microfluidic device was placed on the temperature-controlled stage of the optical microscope (Olympus BX53M, Olympus America Inc.). The o-ABA dissolved in ethanol and pure water was pumped separately into the microfluidic device using programmed syringe pumps (NE-4000, New Era Pump System Inc.). The flow rates of the o-ABA-ethanol solution and pure water were adjusted to achieve the desired supersaturations (S=1.2, 1.9, and 2.5), which were determined using the solubility curve of form I of o-ABA crystals. The inlets of the microfluidic device were connected with one-way check valves to avoid backflow from the mixer. The time-lapse images of the crystallization compartment were recorded using a built-in color camera (LC 30, Olympus America Inc.) of the optical microscope under the reflected light mode, which are also processed using MATLAB (MATLAB 9.3, The MathWorks Inc.) to measure growth rates and particle size distribution. The polymorphs of o-ABA at different supersaturations (S=1.2, 1.9, and 2.5) were identified using (i) distinct morphological features, such as form I having a prismatic morphology whereas form II has a needle-like morphology, and (ii) X-ray diffraction (XRD) experiments on a Bruker DISCOVER diffractometer with Cu Kα radiation.
The antisolvent crystallization of o-ABA was studied with a merged inlet design (FIG. 5) and results were compared with a separated inlet design. FIG. 11, panels A-H show the micrographs of the samples obtained from antisolvent crystallization of o-ABA in the ethanol-water mixture at two different supersaturations (S=1.2 and S=1.9). The relative relationship between the form and morphology of o-ABA allows for instant detection of each polymorph with the in-situ analysis.

[2] = Polymorph and morphology screening of L-histidine by antisolvent crystallization in the continuous-flow multi-well microfluidic mixer; details: for polymorphic form obtained: water solvent, ethanol antisolvent, room temperature
Method: The L-histidine crystals were formed at room temperature with water as the solvent and ethanol as the antisolvent, wherein the microfluidic system was configured to have a cyclone-shaped geometry.
The multi-well microfluidic mixer device was placed on a temperature-controlled stage of the optical microscope (Olympus BX53M, Olympus America Inc.). A saturated solution of L-histidine in water was prepared for the solubility measurement experiment at room temperature.
Eight different syringes were filled with solutions of L-histidine in the water at known concentrations as the source of solvent streams and the other eight syringes were filled with ethanol as antisolvent streams. Syringes were then inserted into 4 programmed syringe pumps (NE-4000, New Era Pump System Inc.). Inlets were connected to one-way microfluidic check valves to prevent backflow inside the channels.
All the microscopic images were recorded with a built-in color camera (LC 30, Olympus America Inc.) using reflected light mode. Capturing time-lapsed images and the growth rate analysis was performed for different samples. Further, these images were processed through MATLAB (MATLAB 9.3, The MathWorks Inc.) for form percentage measurements. L-histidine has two polymorphic form with different crystal habits reported in the literature.
After benchmarking the merged inlet geometry and observing the consistency between the two discussed geometry, the multiwell screening system 10 generally shown in FIG. 4 and using the eight microfluidic chambers 100 having the merged inlet geometry of FIG. 5 was used to perform a parallel screening of L-histidine.
(§1) With eight different microfluidic mixers accommodated on a single chip, eight different supersaturations were studied for polymorph and morphology screening of L-histidine. The results of the continuous flow microfluidic crystallizer were further compared with a batch 96 well plate system with single injection of the solutions in a 96 well plate system. Supersaturation adjustments were done by either changing the initial concentration of the API solution and maintaining a constant ratio for the solvent and antisolvent (1:1) or varying the ratios of two mixing streams for constant initial concentration of API in the solvent. Ratios of solvent and antisolvent were controlled by controlling the flowrates of each stream, respectively.
L-histidine with the two polymorphic forms of form A (stable) and form B (metastable) was selected for the parallel screening. The disclosed microfluidic system provides for the instantaneous, in-situ analysis of the polymorphic change. The studied supersaturations were divided into three regions of low, medium and high supersaturations to understand the effect of the supersaturation ratio on the polymorphic form ratios. […]

[3] = Polymorph and morphology screening of L-histidine in a batch 96 well plate, single injection
From the text: as §1
A low supersaturation degree existed in the wells D, C, and H, where supersaturation was respectively 1.74, 1.14 and 1.15. For a medium range of the supersaturations, well B with S=2.28 and well G with S=2 were evaluated. The other three remaining wells, A, E and F represents the high supersaturation range with S=2.57, […], 3.14 respectively. Identical supersaturations for wells A to H were applied to a batch 96 well plate and optical images were collected after 5 and 30 minutes and shown in the micrographs A2 to H2 and A4 to H4.
In order to measure the growth rate for polymorphs of L-histidine at different supersaturations, time-lapsed images of each sample were taken each 60, 120 or 300 seconds after the crystals were first observed within the crystallization zone. […] To confirm the crystal faces, the crystallography of the polymorph B was imported into WINXMORPH and 3 final models were simulated for existing form B in the samples. The growth rate measurements of the form A crystals, however was done by measuring the distance between the two longest faces due to the significant aspect ratio of the two dominant faces of this crystal form. Using MATLAB (MATLAB 9.3, The MathWorks Inc.) the ratio of the polymorphic form A was measured for the eight samples in both continuous flow crystallizer as well as the batch 96 well plate system. […]

SMILES	polymorphic form obtained ([1]; S=1.9, merged inlets geometry)	polymorphic transformation during the experiment ([1]; S=1.9, merged inlets geometry, constant supersaturation)	polymorphic form obtained ([1]; lower supersaturations, ethanol-water mixture)	crystal size distribution ([2]; continuous microfluidic mixer)	growth rates of crystals at similar supersaturation ([2]; continuous microfluidic mixer, time-lapsed images)	polymorphic form obtained ([2]; supersaturations below 2.3 (low and medium ranges))	polymorphic form obtained ([2]; supersaturations higher than 2.3)	crystal size distribution ([3]; batch 96 well plate)	polymorphic form obtained ([3]; high supersaturation, batch 96 well plate)	growth rates of crystals over the time of the measurements ([3]; identical samples in the batch system)
Nc1ccccc1C(=O)O [o-ABA, o-aminobenzoic acid]	metastable form II was obtained	did not transform to the stable form	crystals of polymorphic form I are obtained							
N[C@@H](Cc1c[nH]cn1)C(=O)O [L-histidine]				more uniform and have a narrower size distribution	almost constant	a mixture of forms A and B	only crystallizes in form B	wide range of size distribution	a mixture of both polymorphic forms	decrease significantly
